Consider three molecules from patent US10206896B2, “Method of treating delayed healing of a wound associated with diabetes” (KUWAIT UNIVERSITY, priority 2014, dated 2019).

The subject of assay [1] is control fibroblasts (CFs). Description: BrdU incorporation into DNA (cell proliferation) in control fibroblasts. It counts as cell-based, Wistar rat. To be noted: 24-hr serum starved CFs, vs starved cells; dose providing the maximum response (IGF 50 ng, PDGF 1 nM, EGF 100 ng). The protocol:
Cell culture and HP treatment. […] Assessment of key fibroblast functions essential for wound healing. To assess cell proliferation, fibroblasts were seeded into a 96-well plate at a density of 1×10^4 per well and were allowed to adhere overnight in DMEM medium supplemented with 10% FCS. After arrest by incubation in serum-free medium for 24 hours, the cells were exposed to growth factors, and the incorporation of bromodeoxyuridine (BrdU) into DNA was determined using the manufacturer's protocol (Roche Diagnostics). Similarly, for the in vitro wound (migration) experiments, cultured fibroblasts were grown in six-well plates until they reached confluence. The medium was removed, the cells were washed with PBS 3× before culturing was continued in serum-free DMEM containing 0.5% BSA for an additional 24 hours. […] The rate of wound healing was quantified as described in the literature […] Caveolin-1 protein expression and PDGF-induced phosphorylation of Akt (20 min) and ERK (10 min) in 24-hr serum starved fibroblasts were determined using a Western-blotting-based technique. A proliferation index encompassing BrdU incorporation into DNA and cell cycle progression was evaluated in response to various growth factors (e.g., IGF, 50 ng; PDGF, 1 nM; EGF, 100 ng) in 24-hr serum starved fibroblast. […]
On the technique in general: Uptake of a labelled nucleoside into DNA is a usual measure of proliferation.

Assay [2] relates to control fibroblasts (CFs). The experiment in a line: In vitro scratch wound (cell migration) in control fibroblasts. It counts as cell-based, Wistar rat. To be noted: 24 hrs post-injury. The protocol:
Cell culture and HP treatment. […] Assessment of key fibroblast functions essential for wound healing. To assess cell proliferation, fibroblasts were seeded into a 96-well plate at a density of 1×10^4 per well and were allowed to adhere overnight in DMEM medium supplemented with 10% FCS. After arrest by incubation in serum-free medium for 24 hours, the cells were exposed to growth factors, and the incorporation of bromodeoxyuridine (BrdU) into DNA was determined using the manufacturer's protocol (Roche Diagnostics). Similarly, for the in vitro wound (migration) experiments, cultured fibroblasts were grown in six-well plates until they reached confluence. The medium was removed, the cells were washed with PBS 3× before culturing was continued in serum-free DMEM containing 0.5% BSA for an additional 24 hours. Thereafter, the monolayer was artificially wounded by using a pipette tip to scratch across the plate; the cells were washed with PBS to remove the detached cells and then cultured in serum-free medium in the presence of mitomyocin C (10 μg/ml) to prevent cell proliferation. The rate of wound healing was quantified as described in the literature […] Caveolin-1 protein expression and PDGF-induced phosphorylation of Akt (20 min) and ERK (10 min) in 24-hr serum starved fibroblasts were determined using a Western-blotting-based technique. A proliferation index encompassing BrdU incorporation into DNA and cell cycle progression was evaluated in response to various growth factors (e.g., IGF, 50 ng; PDGF, 1 nM; EGF, 100 ng) in 24-hr serum starved fibroblast. An in vitro wound-healing model conducted by scratching starved confluent cultured fibroblasts with a pipette tip was used to monitor the impact of PDGF on cell migration. […] In serum-induced proliferating cells in CFs, the optical density at 450 nm (OD450) was more than 10-fold higher than that observed for starved cells.

For assay [3], the system named is diabetic fibroblasts (DFs).
Description: Cell culture and HP treatment. Primary dermal fibroblasts cell lines were established from the dorsal skin of female GotoKakizaki (GK; age 12-15 months) rat, a model for non-obese type 2 diabetes (DFs) and their Wistar control counterparts (CFs). Briefly, the dermis was cut into small pieces and incubated in Dulbecco's modified Eagle medium (DMEM; Invitrogen) containing collagenase (250 U/ml; Sigma) for 30 minutes at 37° C. in 5% CO2 with constant agitation. The sections were triturated vigorously to release fibroblasts, and these cells were collected by centrifugation. […]
Senescence-associated β-galactosidase staining and quantification assays. The senescence-associated β-galactosidase (SA-β-gal) activity was determined using a senescence β-gal staining kit (Cell Signaling Technology). […] For a prices quantification of β-gal activity, the rate of conversion of 4-methylumbelliferyl-3-D-galactopyranoside to the fluorescence hydrolyzed product 4-methylumbellifrone at pH 6 was assessed using previously published procedure (Gary and kindell 2005).
CFs were transfected with caveolin-1-pCMV(pCMV-Cav-1) or its vector control (pCMV-GRP), whereas DFs were rendered caveolin-1 deficient (Cav-1 siRNA) using siRNA-based technique. […] Most of the assays were performed in triplicate, and the data was expressed as the means±SEM of at least three independent experiments […]
The test system of assay [4] is chronic oxidative stress fibroblasts (OS-CFs). Description: Premature senescence in chronic oxidative stress fibroblasts. It counts as cell-based, Wistar rat. The protocol: (§1) Cell culture and HP treatment.
Oxidatively-stressed CFs (OS-CFs). A heightened state of oxidative stress and premature senescence in CFs were induced using hydrogen peroxide (HP) as a stressor. The HP treatment was conducted by seeding approximately 1×10^6 cells in a T75 tissue culture flask. Twenty-four hours later, the cells were exposed to a sublethal dose of HP (150 μM) for 2 hours, washed 2× with PBS and after 4 days of culturing in HP free medium; they were split in a 1:2 ratio, and then the aforementioned protocol was repeated again for cells receiving the second and third HP treatment. A third passage HP-treated CFs denoted in the current study as (OS-CFs) together with the corresponding CFs and DFs were used in most of the assays outlined below.

In assay [5] the test system is diabetic fibroblasts (DFs). Description: BrdU incorporation into DNA (cell proliferation) in diabetic fibroblasts. The conditions noted are these: treated DFs compared with DFs. Format: cell-based, GotoKakizaki (GK) rat. The method, then:
as §1
Assessment of key fibroblast functions essential for wound healing. To assess cell proliferation, fibroblasts were seeded into a 96-well plate at a density of 1×10^4 per well and were allowed to adhere overnight in DMEM medium supplemented with 10% FCS. After arrest by incubation in serum-free medium for 24 hours, the cells were exposed to growth factors, and the incorporation of bromodeoxyuridine (BrdU) into DNA was determined using the manufacturer's protocol (Roche Diagnostics). Similarly, for the in vitro wound (migration) experiments, cultured fibroblasts were grown in six-well plates until they reached confluence. The medium was removed, the cells were washed with PBS 3× before culturing was continued in serum-free DMEM containing 0.5% BSA for an additional 24 hours. Thereafter, the monolayer was artificially wounded by using a pipette tip to scratch across the plate; the cells were washed with PBS to remove the detached cells and then cultured in serum-free medium in the presence of mitomyocin C (10 μg/ml) to prevent cell proliferation. The rate of wound healing was quantified as described in the literature

Assay [6] concerns circular wound of a diabetic rat. Description: Full-thickness excisional circular wound, rate of wound closure. Format: in vivo, GotoKakizaki (GK) rat. To be noted: composition of 30 μM 18α-GA and pluronic acid applied to the wound. The protocol:
Wound model, drug treatment and macroscopic evaluation. All of the animal procedures were performed in accordance with the NIH Guidance for the Care and Use of Laboratory Animals. Female GotoKakizaki rats (GK) were used in the current study. Detailed information regarding this animal model for non-obese type 2 diabetes has been previously described. Weight and age-matched female Wistar rats (Kuwait University breeding colony) served as the corresponding controls. All of the animals were maintained under standard conditions with a 12 hour on/off light cycle, commercial diet, and water ad libitum. […]
The targeted depletion of caveolin-1 was achieved using the antisense vivo-morpholino oligomers (MOs) that were synthesized and designed by Gene Tools, LLC (Eugene, Oreg.). […] The specificity of the cav-1 morphant phenotype was determined using rat caveolin-1 cRNA that lacked the antisense MO binding site. […] The wound area was analyzed using Adobe Photoshop (version 7.0; Adobe Systems), and the percentage of wound closure was derived by the following formula: (1−[current wound size/initial wound size])×100. […]
Full-thickness excisional wounds were induced in the control and GK (a non-obese genetic model of type 2 diabetes), and key parameters related to cellular senescence, caveolin-1 signaling and oxidative stress were measured 10 days post-injury. […]

Take PDGF: the “increase of proliferation rate (BrdU incorporation)” value in assay [1] is listed as “approximately 10 fold”. Moreover, in assay [2], the “number of cells that migrated into the cell-free wound zone” value was “markedly increased” and the “relative potency on cell migration among growth factors” value is given as “most potent among them”.

In the case of IGF: mitotic growth factor, the “increase of proliferation rate (BrdU incorporation)” value in assay [1] was approximately 6.7 fold. Besides, the “number of cells that migrated into the cell-free wound zone” value in assay [2] is “markedly increased”.

On to `CC1(C)[C@@H](O)CC[C@]2(C)[C@H]3C(=O)C=C4[C@H]5C[C@@](C)(C(=O)O)CC[C@]5(C)CC[C@@]4(C)[C@]3(C)CC[C@@H]12` [18α-GA, 18α-Glycyrrhetinic acid], for which the premature senescence result in assay [3] (DFs) and in assay [4] was “can be reversed” each time. Further, the “level/activity of SA-β-gal” value in assay [3] (treated DFs compared with DFs) is on record as “significantly lower level”. Moreover, the “rate of proliferation (BrdU incorporation into DNA)” value in assay [5] is reported as “increased rate of proliferation”. Besides, the “impaired wound healing (rate of wound closure)” value in assay [6] is reported as “ameliorate impaired wound healing”.
